Assay in all cases: microbe, parasite or virus in culture
Holding throughout (type): cell-based

One test has as its system Botrytis cinerea. To be noted: read-out: IC50 B. cinerea.
For another test, the system named is Phytophthora infestans. The following applies: for IC50 P. infestans: fungal growth on 1.5% agar minimal media, 20° C., 3-5 days, 3-fold serial dilutions, C.V. class in parentheses; for IC50: Phytophthora infestans, read-out: IC50 P. infestans.
The next test relates to Stagonospora nodorum. The following applies: for IC50: Parastagonospora nodorum, read-out: IC50 S. nodorum.
For a further test, the system named is Septoria tritici. The following applies: for IC50: Zymoseptoria tritici, read-out: IC50 S. tritici.

In the case of `C=C(C(=O)OCc1ccc(Cl)c(Cl)c1)C(O)c1nccs1` (stereo not drawn) [Compound 4, 3,4-Dichlorophenylmethyl β-hydroxy-α-methylene-2-thiazolepropanoate], in the test with Botrytis cinerea, the IC50 is below 5 µM. Besides, the “IC50 P. infestans” value in the test on Phytophthora infestans was “B (d)”. Further, the “IC50 S. nodorum” value with Stagonospora nodorum is “C (b)”. The “IC50 S. tritici” value in the test on Septoria tritici is given as “B (b)”.
For `O=C(OCc1cccc(C(F)(F)F)c1)/C(=C\c1ccccc1)C(O)c1cccnc1` (stereo not drawn) [Compound 5, 3-(Trifluoromethyl)phenylmethyl Z-α-(α-hydroxy-3-pyridylmethyl)-3-phenylpropenoate], the IC50 in the test with Botrytis cinerea and in the test on Phytophthora infestans was above 25 µM in each case. Besides, the “IC50 S. nodorum” value in the test with Stagonospora nodorum is recorded as “A (b)”. The “IC50 S. tritici” value in the test with Septoria tritici is on record as “A (b)”.
For the compound `C=C(C(=O)Oc1ccc(Cl)cc1)C(O)c1cccnc1` (stereo not drawn) [Compound 19, 4-Chlorophenyl β-hydroxy-α-methylene-3-pyridinepropanoate], the IC50 in the test on Botrytis cinerea is above 25 µM. Moreover, the “IC50 P. infestans” value with Phytophthora infestans is “A (c)”. For the same compound, in the test with Stagonospora nodorum, the “IC50 S. nodorum” value was “C (c)”. The “IC50 S. tritici” value in the test with Septoria tritici is “A (c)”.
As to `C=C(C(=O)OCc1ccc(Oc2cccc(Cl)c2)cc1)C(O)c1cccnc1` (stereo not drawn) [Compound 24, 4-(3-Chlorophenoxy)phenylmethyl β-hydroxy-α-methylene-3-pyridinepropanoate], the IC50 in the test with Botrytis cinerea is above 25 µM; in the test on Phytophthora infestans, 16 to 25 µM. In addition, the “IC50 S. nodorum” value in the test on Stagonospora nodorum was “C (c)”. Further, the “IC50 S. tritici” value in the test on Septoria tritici was “A (d)”.
Take `C=C(C(=O)OCc1ccc(Oc2ccccc2)cc1)C(O)c1cccnc1` (stereo not drawn) [Compound 28, 4-Phenoxyphenylmethyl β-hydroxy-α-methylene-3-pyridinepropanoate]: the “IC50 P. infestans” value with Phytophthora infestans is recorded as “B (a)”. Further, the IC50 in the test on Stagonospora nodorum is 6 to 15 µM; with Septoria tritici, below 5 µM.
For the compound `C=C(C(=O)OCc1ccc(Oc2ccccc2)cc1)C(O)c1nccs1` (stereo not drawn) [Compound 30, 4-Phenoxyphenylmethyl β-hydroxy-α-methylene-2-thiazolepropanoate], the IC50 is 16 to 25 µM in the test on Botrytis cinerea, above 25 µM in the test on Stagonospora nodorum and 6 to 15 µM in the test with Septoria tritici. Also, the “IC50 P. infestans” value in the test on Phytophthora infestans is “A (b)”.

The record behind these values is US7541472B2 (priority 2004, dated 2009).
